Patent publication US12558353B2 (CELLTAXIS, LLC, priority 2018, dated 2026)
Entries after “also recorded” stand apart in the source; their conditions may differ.

Tested on: adult patients with cystic fibrosis
Experiment: EMPIRE-CF: absolute change from baseline in FEV1pp (spirometry)
Assay type: in vivo, human
Conditions: 48 weeks of therapy
Experimental: The primary endpoints were absolute change from baseline in FEV1pp and safety outcomes. Secondary endpoints included rate of pulmonary exacerbations and time to first pulmonary exacerbation, and the effects on biomarkers of lung and systemic inflammation. Analyses are described in section entitled “Analysis.”
Spirometry data were recorded at screening and baseline; all other spirometric measurements at subsequent visits are ideally recorded within ±1 h of the baseline visit measurement. All tests met American Thoracic Society/European Respiratory Society criteria for quality (acceptability, reproducibility, and end of test criteria) [Miller et al., 2005]. To ensure consistency of measurement, spirometry measurements were ideally performed by the same researcher and the patient coached to use maximum effort at every attempt. Patients were able to take all of their concomitant medications according to their regular schedule; however, they were to refrain from using short-acting bronchodilators within 4 h of the scheduled spirometry time, and long-acting bronchodilators within 12-24 h of the scheduled spirometry time.
The primary analysis was based upon an analysis of variance (ANOVA) in which the average of the Week 48 change from baseline in FEV1pp for the two acebilustat doses was compared to that in the placebo group. […]

O=C(O)c1ccc(CN2C[C@@H]3C[C@H]2CN3Cc2ccc(Oc3ccc(-c4ncco4)cc3)cc2)cc1 [acebilustat, 4-{[(1S,4S)-5-({4-[4-oxazol-2-yl-phenoxy]phenyl}methyl)-2,5-diazabicyclo[2.2.1]heptan-2-yl]methyl}benzoic acid]
absolute change in FEV1pp from baseline at Week 48 versus placebo (primary endpoint): not different from placebo; also recorded: did not separate from placebo; also recorded: No difference between acebilustat and placebo
